Laboratory results taken from article PMC9378504 (Journal of medicinal chemistry, 2022).

Assays:
[1] = tested on: 20 protein lysine and arginine methyltransferases including NSD1/2/3; assay: Selectivity assay, radioisotope-based filter binding; assay type: biochemical, human; conditions: 10 μM, in duplicate, SAM 1 μM
[2] = target: T1, NSD2 (Homo sapiens, UniProt O96028); assay: Western blotting of NSD2 protein level in CRBN KO 293FT cells; assay type: cell-based; conditions: 293FT cells with CRISPR-Cas9-mediated KO of CRBN, range of concentrations, 48 h
T1 sequence (O96028 1-1365): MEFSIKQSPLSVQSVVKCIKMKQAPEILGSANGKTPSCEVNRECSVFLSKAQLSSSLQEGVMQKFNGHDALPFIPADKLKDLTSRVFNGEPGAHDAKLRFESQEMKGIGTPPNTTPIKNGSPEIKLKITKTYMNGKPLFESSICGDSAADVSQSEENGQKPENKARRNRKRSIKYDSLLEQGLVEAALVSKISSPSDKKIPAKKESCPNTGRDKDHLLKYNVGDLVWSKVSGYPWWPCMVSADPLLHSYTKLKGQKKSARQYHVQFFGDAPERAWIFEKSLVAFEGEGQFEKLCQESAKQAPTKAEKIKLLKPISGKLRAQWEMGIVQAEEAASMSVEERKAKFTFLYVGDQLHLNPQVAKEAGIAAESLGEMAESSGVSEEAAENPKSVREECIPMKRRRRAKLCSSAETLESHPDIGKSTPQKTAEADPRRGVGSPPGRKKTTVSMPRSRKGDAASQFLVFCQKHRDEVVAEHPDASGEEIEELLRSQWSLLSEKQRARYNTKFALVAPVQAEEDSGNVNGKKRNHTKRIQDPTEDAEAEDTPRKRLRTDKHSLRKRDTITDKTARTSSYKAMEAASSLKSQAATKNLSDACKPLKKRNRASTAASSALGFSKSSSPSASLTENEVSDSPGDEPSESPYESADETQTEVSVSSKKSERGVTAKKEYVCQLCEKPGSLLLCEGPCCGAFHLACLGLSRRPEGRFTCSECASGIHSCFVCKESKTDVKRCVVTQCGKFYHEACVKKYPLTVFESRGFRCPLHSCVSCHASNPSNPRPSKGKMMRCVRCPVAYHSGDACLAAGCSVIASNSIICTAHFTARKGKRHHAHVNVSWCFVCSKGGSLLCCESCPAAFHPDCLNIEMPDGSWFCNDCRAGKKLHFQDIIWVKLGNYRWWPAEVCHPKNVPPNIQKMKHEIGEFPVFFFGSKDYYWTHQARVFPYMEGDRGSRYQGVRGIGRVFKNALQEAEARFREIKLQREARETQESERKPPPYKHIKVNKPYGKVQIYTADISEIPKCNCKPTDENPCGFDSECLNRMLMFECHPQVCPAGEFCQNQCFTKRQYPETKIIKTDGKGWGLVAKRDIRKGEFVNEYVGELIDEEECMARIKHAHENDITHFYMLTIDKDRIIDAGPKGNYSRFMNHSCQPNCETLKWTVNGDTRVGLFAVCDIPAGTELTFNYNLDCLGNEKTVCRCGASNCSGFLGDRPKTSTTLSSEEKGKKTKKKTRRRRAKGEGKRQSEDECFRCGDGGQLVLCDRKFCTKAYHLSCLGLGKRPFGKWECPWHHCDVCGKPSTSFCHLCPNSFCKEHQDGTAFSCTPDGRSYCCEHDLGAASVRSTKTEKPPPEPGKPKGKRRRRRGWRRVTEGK

[3] = Mouse PK study; assay type: in vivo; conditions: single IP 50 mg/kg, male Swiss albino mice
[4] = target: T2, IKZF3 (Homo sapiens, UniProt Q96SW2+Q9UKT9); assay: Western blotting of IKZF3 protein level in KMS11 cells; assay type: cell-based; conditions: then 5 μM for 6 h
[5] = tested on: KMS11 cells; assay: Cell growth inhibition assay in KMS11 cells; assay type: cell-based, Human; conditions: 2.5 μM, 8 days
[6] = target: T1, NSD2; assay: Western blotting of NSD2 protein level in KMS11 cells; assay type: cell-based; conditions: 2.5 μM, 72 h
[7] = tested on: GSPT1; assay: Western blotting of GSPT1 protein level in H929 cells; assay type: cell-based, Human; conditions: 2.5 μM, 72 h
[8] = target: T1, NSD2; assay: Western blotting of NSD2 protein level in 293FT cells; assay type: cell-based
[9] = tested on: GSPT1; assay: Western blotting of GSPT1 protein level in KMS11 cells; assay type: cell-based, Human; conditions: 2.5 μM, 72 h
[10] = target: T2, IKZF3; assay: Western blotting of IKZF3 protein level in 293FT cells; assay type: cell-based; conditions: for IKZF3 protein level after pretreatment: 293FT cells, then 5 μM for 6 h
[11] = target: T3, IKZF1 (Homo sapiens, UniProt Q13422+Q96SW2); assay: Western blotting of IKZF1 protein level in KMS11 cells; assay type: cell-based; conditions: for IKZF1 degradation after pretreatment: then 5 μM for 6 h
[12] = tested on: H929 cells; assay: Cell growth inhibition assay in H929 cells; assay type: cell-based, Human; conditions: 2.5 μM, 8 days
[13] = target: T2, IKZF3; assay: Western blotting of IKZF3 protein level in CRBN KO 293FT cells; assay type: cell-based; conditions: 293FT cells with CRISPR-Cas9-mediated KO of CRBN, range of concentrations, 48 h
[14] = target: T1, NSD2; assay: Western blotting of NSD2 protein level in H929 cells; assay type: cell-based; conditions: 2.5 μM, 72 h
[15] = target: T3, IKZF1; assay: Western blotting of IKZF1 protein level in H929 cells; assay type: cell-based; conditions: 2.5 μM, 72 h
[16] = pretreated with 10 nM MLN9708 for 2 h
[17] = pretreated with 0.5 μM MLN4924 for 2 h
[18] = WT 293FT cells, range of concentrations, 48 h

T3 sequence (Q13422 whole entry): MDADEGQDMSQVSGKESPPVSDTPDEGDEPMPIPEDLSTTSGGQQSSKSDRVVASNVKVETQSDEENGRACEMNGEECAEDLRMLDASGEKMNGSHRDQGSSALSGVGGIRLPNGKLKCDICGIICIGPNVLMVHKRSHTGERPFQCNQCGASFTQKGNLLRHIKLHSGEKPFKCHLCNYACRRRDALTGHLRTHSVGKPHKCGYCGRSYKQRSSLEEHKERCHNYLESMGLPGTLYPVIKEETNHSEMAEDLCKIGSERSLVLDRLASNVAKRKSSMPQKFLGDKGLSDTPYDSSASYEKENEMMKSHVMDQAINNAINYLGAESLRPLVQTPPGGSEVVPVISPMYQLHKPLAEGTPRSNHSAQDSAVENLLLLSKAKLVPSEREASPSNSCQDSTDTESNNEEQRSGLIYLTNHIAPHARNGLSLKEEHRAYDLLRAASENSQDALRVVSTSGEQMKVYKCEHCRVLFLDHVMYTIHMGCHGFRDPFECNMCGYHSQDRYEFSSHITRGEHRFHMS
T3 sequence (Q96SW2 whole entry): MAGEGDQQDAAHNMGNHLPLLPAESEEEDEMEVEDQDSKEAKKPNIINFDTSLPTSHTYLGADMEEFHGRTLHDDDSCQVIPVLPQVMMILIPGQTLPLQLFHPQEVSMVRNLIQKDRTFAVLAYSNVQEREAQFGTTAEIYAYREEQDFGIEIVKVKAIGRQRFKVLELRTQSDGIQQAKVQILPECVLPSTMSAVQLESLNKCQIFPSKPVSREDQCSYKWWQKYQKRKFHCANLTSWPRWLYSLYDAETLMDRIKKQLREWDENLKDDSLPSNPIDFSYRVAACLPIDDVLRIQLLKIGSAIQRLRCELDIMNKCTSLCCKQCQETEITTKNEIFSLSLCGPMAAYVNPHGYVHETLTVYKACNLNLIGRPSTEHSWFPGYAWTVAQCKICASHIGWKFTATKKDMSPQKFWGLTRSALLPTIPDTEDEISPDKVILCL
T3 sequence (Q16531 whole entry partner): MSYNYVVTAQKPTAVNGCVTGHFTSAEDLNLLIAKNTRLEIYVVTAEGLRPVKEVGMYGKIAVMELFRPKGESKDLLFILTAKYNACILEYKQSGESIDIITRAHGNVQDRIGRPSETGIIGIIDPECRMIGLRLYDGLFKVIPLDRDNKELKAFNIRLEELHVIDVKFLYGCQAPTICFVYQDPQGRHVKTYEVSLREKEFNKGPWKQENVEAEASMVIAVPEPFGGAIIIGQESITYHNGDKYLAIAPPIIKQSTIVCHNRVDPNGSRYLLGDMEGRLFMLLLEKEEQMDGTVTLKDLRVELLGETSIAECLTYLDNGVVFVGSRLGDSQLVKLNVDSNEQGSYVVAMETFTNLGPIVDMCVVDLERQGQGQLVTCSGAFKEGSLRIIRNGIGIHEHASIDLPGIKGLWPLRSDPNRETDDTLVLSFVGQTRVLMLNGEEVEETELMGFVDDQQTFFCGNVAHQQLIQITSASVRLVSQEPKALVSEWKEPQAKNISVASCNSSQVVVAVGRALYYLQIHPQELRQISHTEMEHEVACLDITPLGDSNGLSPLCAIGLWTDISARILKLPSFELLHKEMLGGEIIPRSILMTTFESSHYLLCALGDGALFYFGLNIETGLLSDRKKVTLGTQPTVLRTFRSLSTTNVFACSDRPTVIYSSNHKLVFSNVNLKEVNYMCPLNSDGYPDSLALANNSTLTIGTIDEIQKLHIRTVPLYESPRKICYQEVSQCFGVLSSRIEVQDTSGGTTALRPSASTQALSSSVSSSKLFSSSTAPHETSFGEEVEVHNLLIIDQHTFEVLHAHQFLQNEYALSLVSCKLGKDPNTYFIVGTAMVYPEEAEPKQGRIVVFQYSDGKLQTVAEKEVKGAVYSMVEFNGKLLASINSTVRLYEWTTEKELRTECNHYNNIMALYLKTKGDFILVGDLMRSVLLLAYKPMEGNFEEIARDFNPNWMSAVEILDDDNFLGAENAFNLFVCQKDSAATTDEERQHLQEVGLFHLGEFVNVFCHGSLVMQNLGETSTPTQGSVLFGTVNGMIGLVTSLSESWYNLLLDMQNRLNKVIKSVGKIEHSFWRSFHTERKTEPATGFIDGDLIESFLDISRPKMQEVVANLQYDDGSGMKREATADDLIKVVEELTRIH
T2 sequence (Q9UKT9 whole entry): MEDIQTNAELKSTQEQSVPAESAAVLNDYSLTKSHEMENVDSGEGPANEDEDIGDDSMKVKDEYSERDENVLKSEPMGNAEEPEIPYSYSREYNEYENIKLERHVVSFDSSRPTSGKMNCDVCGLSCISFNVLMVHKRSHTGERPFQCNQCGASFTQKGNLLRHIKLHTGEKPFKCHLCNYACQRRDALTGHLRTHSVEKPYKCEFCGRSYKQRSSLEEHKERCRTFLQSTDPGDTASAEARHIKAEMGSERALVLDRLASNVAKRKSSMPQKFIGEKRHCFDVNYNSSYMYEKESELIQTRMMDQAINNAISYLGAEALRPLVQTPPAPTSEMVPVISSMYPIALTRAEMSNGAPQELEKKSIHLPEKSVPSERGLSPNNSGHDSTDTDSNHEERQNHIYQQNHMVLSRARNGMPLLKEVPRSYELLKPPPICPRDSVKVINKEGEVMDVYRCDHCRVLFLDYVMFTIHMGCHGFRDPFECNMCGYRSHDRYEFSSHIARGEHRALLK
T2 sequence (Q96SW2 whole entry): as the sequence (Q96SW2 whole entry) above
T2 sequence (Q16531 whole entry partner): as the sequence (Q16531 whole entry partner) above

For `O=C(CNc1cccc2c1C(=O)N(C1CCC(=O)NC1=O)C2=O)NCCCOc1ccc(NC(=O)c2ccc(CN(C(=O)c3ccc4c(c3)OCC(=O)N4)C3CC3)cc2)nc1` (stereo not shown) [Compound 9, N-Cyclopropyl-N-(4-((5-(3-(2-((2-(2,6-dioxopiperidin-3-yl)-1,3-dioxoisoindolin-4-yl)amino)acetamido)propoxy)pyridin-2-yl)-carbamoyl)benzyl)-3-oxo-3,4-dihydro-2H-benzo[b][1,4]oxazine-7-carboxamide], the “Inhibition of 20 methyltransferases (selectivity)” value [1] was “did not inhibit any of the 20 methyltransferases”, the NSD2 degradation [2] was “no NSD2 or IKZF3 degradation was detected” and the clinical signs ([3]; PK study) was “no clinical signs were observed”. The tolerability ([3]; PK study) was “well tolerated”, the maximum plasma concentration ([3]; mean ± SD from three mice) was 1.35 ± 0.08 µM and the “IKZF3 degradation after pretreatment” value [4, 16] was “at least partially rescued the IKZF1 and IKZF3 degradation”. For the same compound, the “IKZF3 degradation after pretreatment” value [4, 17] was “at least partially rescued the IKZF1 and IKZF3 degradation”, the Cell growth inhibition [5] was “effectively inhibited the growth” and the NSD2 degradation [6] was “effectively degraded NSD2”. The GSPT1 degradation [7] was “did not degrade GSPT1”, the “NSD2 protein level on cotreatment” value ([8]; 293FT cells, 5 μM for 48 h, cotreated with 5 μM UNC6934 during the last 6 h) was “significantly rescued” and the “NSD2 degradation, time course” value ([8]; 293FT cells, 5 μM, 36 h) was “some NSD2 degradation”. The “NSD2 degradation, time course” value ([8]; 293FT cells, 5 μM, 48 h) was “significant degradation”, the “NSD2 degradation, time course” value ([8]; 293FT cells, 5 μM, 72 h) was “maximum degradation effect” and the “NSD2 protein level after washout” value ([8]; 293FT cells, 5 μM, then washout, 48 h post washout) was “fully recovered”. The NSD2 protein level ([8]; 293FT cells, 2.5 and 10 μM, 48 h, Figure 2) was “effectively induced degradation of NSD2 at both 2.5 and 10 μM without a hook effect”, the NSD2 degradation [8, 18] was “clear degradation of NSD2 and IKZF3 was observed” and the GSPT1 degradation [9] was “did not degrade GSPT1”. The “IKZF3 protein level after pretreatment” value [10, 16] was “successfully restored the IKZF3 protein level”, the “IKZF3 protein level after pretreatment” value [10, 17] was “successfully restored the IKZF3 protein level” and the IKZF3 degradation [10, 18] was “clear degradation of NSD2 and IKZF3 was observed”. For the same compound, the IKZF1 protein level ([11]; 2.5 μM, 72 h) was “clearly reduced the IKZF1 protein level”, the “IKZF1 degradation after pretreatment” value [11, 16] was “at least partially rescued the IKZF1 and IKZF3 degradation” and the “IKZF1 degradation after pretreatment” value [11, 17] was “at least partially rescued the IKZF1 and IKZF3 degradation”. The Cell growth inhibition [12] was “effectively inhibited the growth”, the IKZF3 degradation [13] was “no NSD2 or IKZF3 degradation was detected” and the NSD2 degradation [14] was “effectively degraded NSD2”. The IKZF1 protein level [15] was “clearly reduced the IKZF1 protein level”.
